A short description of series [1]: Drug transport assay with MDCK monolayers (apparent permeability, Papp). In kind it is in vitro ADME. Particulars: dog, MDCK, apical to basolateral, 37° C. The protocol: (§1) Experiment 1. Permeability Measurement by Performing a Drug Transport Assay with MDCK Monolayers
(§2) (+)-3-HM was dissolved in DMSO at 10 mM and stored at 4° C. MDCK cells were obtained from the ATCC (American Type Culture Collection, CCL-34). MDCK cells were maintained in DMEM (Dulbecco's MEM with high glucose) containing 1×NEAA (Non-essential amino acids), 10 mM HEPES, 100 units penicillin, 0.1 mg/ml streptomycin and 8% FBS. The cells were cultivated in T-75 flasks in a cell culture incubator at 37° C. MDCK cells were passaged twice per week. When the cells were 90% confluence, the cells were plated at 1×10^5 cells/well in transwell. The cells were fed with fresh medium every other day. The Cells were grown to confluence on the transwell for 5 days. When the cells have reached confluence and are differentiated, they are ready to be used for transport studies. The TEER (Transepithelial electrical resistance) of each well was measured by Millicell-ERS system ohm meter. The electrode was immersed in 70% ethanol and PBS for 15 minutes. […] MDCK monolayers with TEER values >400Ω were used. After the each well was washed by using sterile HBSS (hank's buffered solution) and (+)-3-HM was diluted 100-fold in HBSS, the apical wells were filled with 200 ul of the test compounds. The basolateral wells were filled with 1 ml of HBSS buffer. Only 0.1% DMSO treated wells prepared to adjust for analysis. The cells were incubated at 37° C. for 1 hour. At the end of the transport period, the result samples were removed from the apical (150 ul) and basolateral (900 ul) wells. The representative compounds of Examples were conducted in same conditions.
(§3) Experiment 2. The HPLC Analysis and the Calculation of Papp
(§4) HPLC analyses were performed using a WATERS HPLC system. A ZORBAX Eclipse XDB-C18 (4.6×250 mm, 5 μm particle size) was used. The optimal operating conditions are as followed; Mobile phase A is composed of distilled water-acetonitrile (ACN) (9:1, v/v) with 0.1% trifluoroacetic acid (TFA), and mobile phase B is 90% acetonitrile with 0.1% TFA. All buffers were used after the 0.45 μm filtration.
(§5) The UV detection was performed at 280 nm or the fluorescence detection was performed at Excitation in 228 nm and Emission in 330 nm.
(§6) The concentration of A and B buffer was performed by the gradient method and the total analysis time was 38 min. The optimal operating conditions: elution gradient 0-10 min (10-50%), 10-20 min (50-90%), 20-25 min (90%), 25-27 min (90-10%), 27-38 min (10%). After the analysis of HPLC, the percentage of area of (+)-3-HM and the compound of Example 2 were calculated by remained concentration (μg/ml).
(§7) The apparent permeability coefficients (Papp), expressed in nm/sec, were calculated by the following equation: Permeability (Papp)=(Receiver Volume×Receiver Conc.)/(Filter surface area×Reaction Time×donor Conc.)×10^7.

Series [2] has as its system MDCK monolayers. The series is described as above. The note with it: apical to basolateral, 37° C., 1 hour. The class given is in vitro ADME. The protocol:
as §1, §2, §3, §4, §5, §6, §7

Series [3] deals with MPTP-induced Parkinson's disease animal model. The note with it: daily injections, literature; cited from earlier work.
For series [4], the system named is MDCK monolayers. Particulars: MDCK Papp; cited from earlier work.
The conditions of series [5]: known drugs; cited from earlier work.

Counter-ions that a name gives are not always drawn.

With `CCC(C)OC(=O)OCOc1ccc2c(c1)[C@]13CCCC[C@@H]1[C@H](C2)NCC3` (single isomer, unassigned; (+)) [Example 25, (+)-sec-Butyl(morphinan-3-yloxy)methyl carbonate TFA], in series [1], the Papp A→B at 1 h, 100 µM was determined as 20.3 ×10⁻⁶ cm/s.
`CC(C)OC(=O)OCOc1ccc2c(c1)[C@]13CCCC[C@@H]1[C@H](C2)NCC3` [Example 2, (+)-Isopropyl(morphinan-3-yloxy)methyl carbonate]: the Papp A→B at 1 h, 100 µM in series [1] amounted to 26.2 ×10⁻⁶ cm/s.
Take `CCCOC(=O)OCOc1ccc2c(c1)[C@]13CCCC[C@@H]1[C@H](C2)NCC3` [Example 3, (+)-(Morphinan-3-yloxy)methyl propyl carbonate]: the Papp A→B at 1 h, 100 µM in series [1] was determined as 21.9 ×10⁻⁶ cm/s.
Turning to `O=C(OCOc1ccc2c(c1)[C@]13CCCC[C@@H]1[C@H](C2)NCC3)OCC1CC1` [Example 4, (+)-Cyclopropylmethyl(morphinan-3-yloxy)methyl carbonate], the Papp A→B at 1 h, 100 µM in series [1] was 15.3 ×10⁻⁶ cm/s.
With `O=C(OCOc1ccc2c(c1)[C@]13CCCC[C@@H]1[C@H](C2)NCC3)OC1CCCC1` [Example 6, (+)-Cyclopentyl(morphinan-3-yloxy)methyl carbonate], the Papp A→B at 1 h, 100 µM in series [1] is 20.6 ×10⁻⁶ cm/s.
Consider `O=C(OCOc1ccc2c(c1)[C@]13CCCC[C@@H]1[C@H](C2)NCC3)OC1CCCCC1` [Example 8, (+)-Cyclohexyl(morphinan-3-yloxy)methyl carbonate], for which the Papp A→B at 1 h, 100 µM in series [1] turned out to be 19.7 ×10⁻⁶ cm/s.
Regarding `O=C(OCOc1ccc2c(c1)[C@]13CCCC[C@@H]1[C@H](C2)NCC3)OCC1CCCCC1` [Example 9, (+)-Cyclohexylmethyl(morphinan-3-yloxy)methyl carbonate], the Papp A→B at 1 h, 100 µM in series [1] was 48.7 ×10⁻⁶ cm/s.
Consider `O=C(OCOc1ccc2c(c1)[C@]13CCCC[C@@H]1[C@H](C2)NCC3)OCC1CCCC1` [Example 15, (+)-Cyclopentylmethyl(morphinan-3-yloxy)methyl carbonate TFA], for which the Papp A→B at 1 h, 100 µM in series [1] was 33.7 ×10⁻⁶ cm/s.
As to `O=C(OCOc1ccc2c(c1)[C@]13CCCC[C@@H]1[C@H](C2)NCC3)OCC1CCC1` [Example 17, (+)-Cyclobutylmethyl(morphinan-3-yloxy)methyl carbonate TFA], the Papp A→B at 1 h, 100 µM in series [1] is 22.7 ×10⁻⁶ cm/s.
Consider `CC(C)COC(=O)OCOc1ccc2c(c1)[C@]13CCCC[C@@H]1[C@H](C2)NCC3` [Example 23, (+)-Isobutyl(morphinan-3-yloxy)methyl carbonate TFA], for which, in series [1], the Papp A→B at 1 h, 100 µM is 20.3 ×10⁻⁶ cm/s.
On to `O=C(OCOc1ccc2c(c1)[C@]13CCCC[C@@H]1[C@H](C2)NCC3)OC1CCCCCC1` [Example 27, TFA], for which, in series [1], the Papp A→B at 1 h, 100 µM came out at 23.4 ×10⁻⁶ cm/s.
For the molecule `CC(Cc1ccccc1)OC(=O)OCOc1ccc2c(c1)[C@]13CCCC[C@@H]1[C@H](C2)NCC3` (stereo partly drawn) [Example 31, (+)-(Morphinan-3-yloxy)methyl 1-phenylpropan-2-yl carbonate TFA], in series [1], the Papp A→B at 1 h, 100 µM came out at 22.3 ×10⁻⁶ cm/s.
Consider `O=C(OCOc1ccc2c(c1)[C@]13CCCC[C@@H]1[C@H](C2)NCC3)OC1CCC1` [Example 37, (+)-Cyclobutyl(morphinan-3-yloxy)methyl carbonate TFA], for which, in series [1], the Papp A→B at 1 h, 100 µM is 13.6 ×10⁻⁶ cm/s.
For the molecule `CCCC(C)OC(=O)OCOc1ccc2c(c1)[C@]13CCCC[C@@H]1[C@H](C2)NCC3` (stereo partly drawn) [Example 41, (+)-(Morphinan-3-yloxy)methyl pentan-2-yl carbonate TFA], the Papp A→B at 1 h, 100 µM in series [1] stood at 23.1 ×10⁻⁶ cm/s.
For the molecule `CC(C)C(=O)OCOc1ccc2c(c1)[C@]13CCCC[C@@H]1[C@H](C2)NCC3` [Example 44, (+)-(Morphinan-3-yloxy)methyl isobutyrate], in series [1], the Papp A→B at 1 h, 100 µM came out at 21.2 ×10⁻⁶ cm/s.
The same measure, in the same setting: the value for `CCC(CC)C(=O)OCOc1ccc2c(c1)[C@]13CCCC[C@@H]1[C@H](C2)NCC3` [Example 54, (+)-(Morphinan-3-yloxy)methyl 2-ethylbutanoate TFA] was 28.9 ×10⁻⁶ cm/s; that for `O=C(OCOc1ccc2c(c1)[C@]13CCCC[C@@H]1[C@H](C2)NCC3)C1CCCCC1` [Example 56, (+)-(Morphinan-3-yloxy)methyl cyclohexanoate TFA] was 9.43 ×10⁻⁶ cm/s; that for `O=C(OCOc1ccc2c(c1)[C@]13CCCC[C@@H]1[C@H](C2)NCC3)C1CCCC1` [Example 58, (+)-(Morphinan-3-yloxy)methyl cyclopentanoate TFA] was 6.05 ×10⁻⁶ cm/s.
Turning to `CCCCC(CC)C(=O)OCOc1ccc2c(c1)[C@]13CCCC[C@@H]1[C@H](C2)NCC3` (stereo partly drawn) [Example 60, (+)-(Morphinan-3-yloxy)methyl 2-ethylhexanoate TFA], the Papp A→B at 1 h, 100 µM in series [1] was 20.2 ×10⁻⁶ cm/s.
For the molecule `CCC(C)C(=O)OCOc1ccc2c(c1)[C@]13CCCC[C@@H]1[C@H](C2)NCC3` (stereo partly drawn) [Example 66, (+)-(Morphinan-3-yloxy)methyl 2-methylbutanoate TFA], in series [1], the Papp A→B at 1 h, 100 µM worked out at 16.2 ×10⁻⁶ cm/s.
Regarding `O=C(OCOc1ccc2c(c1)[C@]13CCCC[C@@H]1[C@H](C2)NCC3)C1CC1` [Example 68, (+)-(Morphinan-3-yloxy)methyl cyclopropanecarboxylate TFA], the Papp A→B at 1 h, 100 µM in series [1] came out at 10.1 ×10⁻⁶ cm/s.
The same measure, in the same setting: the result for `CC(C)CC(=O)OCOc1ccc2c(c1)[C@]13CCCC[C@@H]1[C@H](C2)NCC3` [Example 70, (+)-(Morphinan-3-yloxy)methyl 3-methylbutanoate TFA] reads 16.6 ×10⁻⁶ cm/s.
Regarding `CCC(C(=O)OCOc1ccc2c(c1)[C@]13CCCC[C@@H]1[C@H](C2)NCC3)c1ccccc1` (stereo partly drawn) [Example 72, (+)-(Morphinan-3-yloxy)methyl 2-phenylbutanoate TFA], in series [1], the Papp A→B at 1 h, 100 µM amounted to 13.1 ×10⁻⁶ cm/s.
For `CC(C)OC(=O)OCOc1ccc2c(c1)[C@]13CCCC[C@@H]1[C@H](C2)NCC3` [Example 80, (+)-Isopropyl(morphinan-3-yloxy)methyl carbonate L-(+)-tartaric acid], the “Papp” value with MDCK monolayers [2] was found to be 18.57 ×10⁻⁶ cm/s.
Consider `CC(C)(C)C(=O)OCOc1ccc2c(c1)[C@]13CCCC[C@@H]1[C@H](C2)NCC3` [Example 105, (+)-(Morphinan-3-yloxy)methyl pivalate salicylic acid], for which the Papp A→B at 1 h, 100 µM in series [1] was 20.3 ×10⁻⁶ cm/s.
For the molecule `Oc1ccc2c(c1)[C@@]13CCCC[C@H]1[C@@H](C2)NCC3` [HM, (+)-3-hydroxymorphinan], in series [3], the “neuroprotective property in MPTP models (DA neurons in substantia nigra pars compacta, striatal DA levels)” value was “dopamine (DA) neurons in substantia nigra pars compacta have been protected and DA levels in striatum has been restored”. Also, in series [1], the Papp A→B at 1 h, 100 µM was 3.33 ×10⁻⁶ cm/s.
On to `CC(=O)Nc1ccc(O)cc1` [acetaminophen], for which the “Permeability values for known drugs” value in the series with MDCK monolayers [4] is 35 ×10⁻⁶ cm/s. In addition, the human absorption in series [5] is recorded as 94%.
`C[C@@H]1C[C@H]2[C@@H]3CCC4=CC(=O)C=C[C@]4(C)[C@@]3(F)[C@@H](O)C[C@]2(C)[C@@]1(O)C(=O)CO` [dexamethasone]: the human absorption in series [5] is 98%.
Consider `CC(C(=O)O)c1cccc(C(=O)c2ccccc2)c1` (stereo not shown) [ketoprofen], for which, in the series on MDCK monolayers [4], the “Permeability values for known drugs” value was 20 ×10⁻⁶ cm/s.

For orientation: Papp A→B means the apparent permeability from the apical to the basolateral side of a cell layer. The term Papp denotes the rate of passage across a membrane or cell layer, normalised by area and donor concentration.

The values above are taken from patent publication US8178551B2 (Green Cross Corporation, priority 2007, dated 2012).
